# Measured values taken from PubChem BioAssay (NCI).
#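 Assay format: 96-well plates, 48-hour exposure. TGI is the concentration that stops growth completely.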
# Tests used:
# Test in all cases: inhibition of tumour cell growth, NCI panel, 48 h
# HOP-62 NSCLC = tested on: HOP-62 NSCLC
# LOX IMVI melanoma = tested on: LOX IMVI melanoma
# U251 CNS = tested on: U251 CNS
# SK-MEL-2 melanoma = tested on: SK-MEL-2 melanoma
# A549 NSCLC = tested on: A549 NSCLC
# DLD-1 colon = tested on: DLD-1 colon
# OVCAR-4 ovarian = tested on: OVCAR-4 ovarian
# CAKI-1 renal = tested on: CAKI-1 renal
# HL-60(TB) leukemia = tested on: HL-60(TB) leukemia
# SR leukemia = tested on: SR leukemia
# UACC-257 melanoma = tested on: UACC-257 melanoma
# NCI-H460 lung = tested on: NCI-H460 lung
# NCI-H23 lung = tested on: NCI-H23 lung
# COLO 205 colon = tested on: COLO 205 colon
# HOP-92 NSCLC = tested on: HOP-92 NSCLC
# RPMI-8226 leukemia = tested on: RPMI-8226 leukemia
# OVCAR-3 ovarian = tested on: OVCAR-3 ovarian
# HCT-15 colon = tested on: HCT-15 colon
# SK-MEL-28 melanoma = tested on: SK-MEL-28 melanoma
# 786-0 renal = tested on: 786-0 renal
# LXFL 529 NSCLC = tested on: LXFL 529 NSCLC
# KM12 colon = tested on: KM12 colon
# SNB-19 CNS = tested on: SNB-19 CNS
# SF-268 CNS = tested on: SF-268 CNS
# OVCAR-5 ovarian = tested on: OVCAR-5 ovarian
# RXF-631 renal = tested on: RXF-631 renal
# K-562 leukemia = tested on: K-562 leukemia
# NCI-H522 lung = tested on: NCI-H522 lung
# UO-31 renal = tested on: UO-31 renal
# SF-539 CNS = tested on: SF-539 CNS
# M14 melanoma = tested on: M14 melanoma
# SF-295 CNS = tested on: SF-295 CNS
# HCC-2998 colon = tested on: HCC-2998 colon
# HT29 colon = tested on: HT29 colon
# MALME-3M melanoma = tested on: MALME-3M melanoma
# XF 498 CNS = tested on: XF 498 CNS
# DMS 273 small cell lung = tested on: DMS 273 small cell lung
# SN12C renal = tested on: SN12C renal
# TK-10 renal = tested on: TK-10 renal
# MOLT-4 leukemia = tested on: MOLT-4 leukemia
# HCT-116 colon = tested on: HCT-116 colon
# SW-620 colon = tested on: SW-620 colon
# SNB-75 CNS = tested on: SNB-75 CNS
# OVCAR-8 ovarian = tested on: OVCAR-8 ovarian
# SNB-78 CNS = tested on: SNB-78 CNS
# ACHN renal = tested on: ACHN renal
# NCI-H226 lung = tested on: NCI-H226 lung
# KM20L2 colon = tested on: KM20L2 colon
# M19-MEL melanoma = tested on: M19-MEL melanoma
# IGROV1 ovarian = tested on: IGROV1 ovarian
# DMS 114 small cell lung = tested on: DMS 114 small cell lung
# HOP-18 NSCLC = tested on: HOP-18 NSCLC
# UACC-62 melanoma = tested on: UACC-62 melanoma
# CCRF-CEM leukemia = tested on: CCRF-CEM leukemia
# EKVX NSCLC = tested on: EKVX NSCLC
# RXF 393 renal = tested on: RXF 393 renal
# SK-MEL-5 melanoma = tested on: SK-MEL-5 melanoma
# SK-OV-3 ovarian = tested on: SK-OV-3 ovarian
# A498 renal = tested on: A498 renal
structure (smiles),measurement,setting,value
Cc1cccc(C(C)(C)C)c1NC(=O)CC1C(=O)Nc2ccccc2S1=O (centres undefined),TGI,HOP-62 NSCLC,> 100 µM
same,TGI,LOX IMVI melanoma,> 100 µM
same,TGI,U251 CNS,> 100 µM
same,TGI,SK-MEL-2 melanoma,> 100 µM
same,TGI,A549 NSCLC,> 100 µM
same,TGI,DLD-1 colon,> 100 µM
same,TGI,OVCAR-4 ovarian,80.1 µM
same,TGI,CAKI-1 renal,> 100 µM
same,TGI,HL-60(TB) leukemia,43.7 µM
same,TGI,SR leukemia,87.8 µM
same,TGI,UACC-257 melanoma,> 100 µM
same,TGI,NCI-H460 lung,> 100 µM
same,TGI,NCI-H23 lung,67.6 µM
same,TGI,COLO 205 colon,40.9 µM
same,TGI,HOP-92 NSCLC,> 100 µM
same,TGI,RPMI-8226 leukemia,> 100 µM
same,TGI,OVCAR-3 ovarian,> 100 µM
same,TGI,HCT-15 colon,> 100 µM
same,TGI,SK-MEL-28 melanoma,> 100 µM
same,TGI,786-0 renal,> 100 µM
same,TGI,LXFL 529 NSCLC,> 100 µM
same,TGI,KM12 colon,> 100 µM
same,TGI,SNB-19 CNS,> 100 µM
same,TGI,SF-268 CNS,> 100 µM
same,TGI,OVCAR-5 ovarian,> 100 µM
same,TGI,RXF-631 renal,> 100 µM
same,TGI,K-562 leukemia,> 100 µM
same,TGI,NCI-H522 lung,> 100 µM
same,TGI,UO-31 renal,> 100 µM
same,TGI,SF-539 CNS,> 100 µM
same,TGI,M14 melanoma,> 100 µM
same,TGI,SF-295 CNS,> 100 µM
same,TGI,HCC-2998 colon,> 100 µM
same,TGI,HT29 colon,> 100 µM
same,TGI,MALME-3M melanoma,> 100 µM
same,TGI,XF 498 CNS,> 100 µM
same,TGI,DMS 273 small cell lung,> 100 µM
same,TGI,SN12C renal,> 100 µM
same,TGI,TK-10 renal,> 100 µM
same,TGI,MOLT-4 leukemia,69.2 µM
same,TGI,HCT-116 colon,> 100 µM
same,TGI,SW-620 colon,> 100 µM
same,TGI,SNB-75 CNS,> 100 µM
same,TGI,OVCAR-8 ovarian,> 100 µM
same,TGI,SNB-78 CNS,> 100 µM
same,TGI,ACHN renal,> 100 µM
same,TGI,NCI-H226 lung,> 100 µM
same,TGI,KM20L2 colon,> 100 µM
COc1ccc2[nH]c3c(cnn4cnnc34)c2c1,TGI,HOP-62 NSCLC,> 100 µM
same,TGI,LOX IMVI melanoma,> 100 µM
same,TGI,U251 CNS,> 100 µM
same,TGI,M19-MEL melanoma,> 100 µM
same,TGI,SK-MEL-2 melanoma,> 100 µM
same,TGI,A549 NSCLC,> 100 µM
same,TGI,DLD-1 colon,> 100 µM
same,TGI,OVCAR-4 ovarian,> 100 µM
same,TGI,CAKI-1 renal,> 100 µM
same,TGI,HL-60(TB) leukemia,> 100 µM
same,TGI,UACC-257 melanoma,> 100 µM
same,TGI,NCI-H460 lung,> 100 µM
same,TGI,NCI-H23 lung,> 100 µM
same,TGI,IGROV1 ovarian,> 100 µM
same,TGI,COLO 205 colon,> 100 µM
same,TGI,HOP-92 NSCLC,> 100 µM
same,TGI,RPMI-8226 leukemia,> 100 µM
same,TGI,DMS 114 small cell lung,> 100 µM
same,TGI,OVCAR-3 ovarian,> 100 µM
same,TGI,HCT-15 colon,> 100 µM
same,TGI,SK-MEL-28 melanoma,> 100 µM
same,TGI,786-0 renal,> 100 µM
same,TGI,LXFL 529 NSCLC,> 100 µM
same,TGI,KM12 colon,> 100 µM
same,TGI,HOP-18 NSCLC,> 100 µM
same,TGI,SNB-19 CNS,> 100 µM
same,TGI,SF-268 CNS,> 100 µM
same,TGI,OVCAR-5 ovarian,> 100 µM
same,TGI,RXF-631 renal,> 100 µM
same,TGI,K-562 leukemia,> 100 µM
same,TGI,UACC-62 melanoma,> 100 µM
same,TGI,NCI-H522 lung,> 100 µM
same,TGI,CCRF-CEM leukemia,> 100 µM
same,TGI,UO-31 renal,> 100 µM
same,TGI,SF-539 CNS,> 100 µM
same,TGI,M14 melanoma,> 100 µM
same,TGI,SF-295 CNS,> 100 µM
same,TGI,HCC-2998 colon,> 100 µM
same,TGI,HT29 colon,> 100 µM
same,TGI,MALME-3M melanoma,> 100 µM
same,TGI,EKVX NSCLC,> 100 µM
same,TGI,RXF 393 renal,> 100 µM
same,TGI,DMS 273 small cell lung,> 100 µM
same,TGI,SN12C renal,> 100 µM
same,TGI,TK-10 renal,> 100 µM
same,TGI,MOLT-4 leukemia,> 100 µM
same,TGI,SK-MEL-5 melanoma,> 100 µM
same,TGI,SW-620 colon,> 100 µM
same,TGI,SNB-75 CNS,> 100 µM
same,TGI,OVCAR-8 ovarian,> 100 µM
same,TGI,SK-OV-3 ovarian,> 100 µM
same,TGI,ACHN renal,> 100 µM
same,TGI,KM20L2 colon,> 100 µM
CCc1ccccc1NC(=O)CCc1nc(=S)[nH][nH]1,TGI,A498 renal,> 100 µM
same,TGI,HOP-62 NSCLC,> 100 µM
same,TGI,LOX IMVI melanoma,> 100 µM
same,TGI,U251 CNS,> 100 µM
same,TGI,M19-MEL melanoma,> 100 µM
same,TGI,SK-MEL-2 melanoma,> 100 µM
same,TGI,A549 NSCLC,> 100 µM
same,TGI,DLD-1 colon,> 100 µM
same,TGI,OVCAR-4 ovarian,> 100 µM
same,TGI,CAKI-1 renal,> 100 µM
same,TGI,HL-60(TB) leukemia,> 100 µM
same,TGI,SR leukemia,> 100 µM
same,TGI,UACC-257 melanoma,> 100 µM
same,TGI,NCI-H460 lung,> 100 µM
same,TGI,NCI-H23 lung,> 100 µM
same,TGI,IGROV1 ovarian,> 100 µM
same,TGI,COLO 205 colon,> 100 µM
same,TGI,HOP-92 NSCLC,> 100 µM
same,TGI,RPMI-8226 leukemia,> 100 µM
same,TGI,DMS 114 small cell lung,> 100 µM
same,TGI,OVCAR-3 ovarian,> 100 µM
same,TGI,HCT-15 colon,> 100 µM
same,TGI,SK-MEL-28 melanoma,> 100 µM
same,TGI,786-0 renal,> 100 µM
same,TGI,LXFL 529 NSCLC,> 100 µM
same,TGI,KM12 colon,> 100 µM
same,TGI,SNB-19 CNS,> 100 µM
same,TGI,SF-268 CNS,> 100 µM
same,TGI,OVCAR-5 ovarian,> 100 µM
same,TGI,RXF-631 renal,> 100 µM
same,TGI,K-562 leukemia,> 100 µM
same,TGI,UACC-62 melanoma,> 100 µM
same,TGI,NCI-H522 lung,> 100 µM
same,TGI,CCRF-CEM leukemia,> 100 µM
same,TGI,UO-31 renal,> 100 µM
same,TGI,SF-539 CNS,> 100 µM
same,TGI,M14 melanoma,> 100 µM
same,TGI,SF-295 CNS,> 100 µM
same,TGI,HCC-2998 colon,> 100 µM
same,TGI,HT29 colon,> 100 µM
same,TGI,MALME-3M melanoma,> 100 µM
same,TGI,XF 498 CNS,> 100 µM
same,TGI,RXF 393 renal,> 100 µM
same,TGI,DMS 273 small cell lung,> 100 µM
same,TGI,SN12C renal,> 100 µM
same,TGI,TK-10 renal,> 100 µM
same,TGI,MOLT-4 leukemia,> 100 µM
same,TGI,SK-MEL-5 melanoma,> 100 µM
same,TGI,HCT-116 colon,> 100 µM
same,TGI,SW-620 colon,> 100 µM
same,TGI,SNB-75 CNS,> 100 µM
same,TGI,OVCAR-8 ovarian,> 100 µM
same,TGI,SK-OV-3 ovarian,> 100 µM
same,TGI,SNB-78 CNS,> 100 µM
same,TGI,ACHN renal,> 100 µM
same,TGI,NCI-H226 lung,> 100 µM
same,TGI,KM20L2 colon,> 100 µM
CC(SC1=CC(=O)c2c(Cl)ccc(O)c2C1=O)C(=O)O (centres undefined),TGI,A498 renal,> 100 µM
same,TGI,LOX IMVI melanoma,21.7 µM
same,TGI,U251 CNS,40.2 µM
same,TGI,SK-MEL-2 melanoma,33.6 µM
same,TGI,A549 NSCLC,48.1 µM
same,TGI,DLD-1 colon,34.7 µM
same,TGI,HL-60(TB) leukemia,12.2 µM
same,TGI,SR leukemia,37.9 µM
same,TGI,UACC-257 melanoma,30.3 µM
same,TGI,NCI-H460 lung,69.4 µM
same,TGI,IGROV1 ovarian,33.4 µM
same,TGI,COLO 205 colon,45.1 µM
same,TGI,HOP-92 NSCLC,38.6 µM
same,TGI,RPMI-8226 leukemia,76.4 µM
same,TGI,DMS 114 small cell lung,38.4 µM
same,TGI,HCT-15 colon,33.9 µM
same,TGI,SK-MEL-28 melanoma,32.9 µM
same,TGI,LXFL 529 NSCLC,29.5 µM
same,TGI,KM12 colon,38.3 µM
same,TGI,HOP-18 NSCLC,75.8 µM
same,TGI,SF-268 CNS,44.2 µM
same,TGI,K-562 leukemia,> 100 µM
same,TGI,CCRF-CEM leukemia,> 100 µM
same,TGI,SF-539 CNS,32.8 µM
same,TGI,SF-295 CNS,33.3 µM
same,TGI,HCC-2998 colon,41.1 µM
same,TGI,MALME-3M melanoma,37.7 µM
same,TGI,EKVX NSCLC,39.9 µM
same,TGI,XF 498 CNS,34.2 µM
same,TGI,DMS 273 small cell lung,35.6 µM
same,TGI,SN12C renal,30.9 µM
same,TGI,TK-10 renal,35.3 µM
same,TGI,MOLT-4 leukemia,57.7 µM
same,TGI,SK-MEL-5 melanoma,27.5 µM
same,TGI,HCT-116 colon,34.4 µM
same,TGI,SW-620 colon,36.2 µM
same,TGI,SNB-75 CNS,31 µM
same,TGI,OVCAR-8 ovarian,36.3 µM
same,TGI,SNB-78 CNS,26.3 µM
same,TGI,NCI-H226 lung,57.3 µM
same,TGI,KM20L2 colon,> 100 µM
